A short description of the data set: Silicone O-ring passive dosing: dissolved concentrations, partitioning, losses and release in MSM. The note with it: for solubility: 15 °C, aqueous buffer. Here is the method:
It is very important to control the freely dissolved PAH concentration and keep it unchanged throughout the experiment by equilibrium partitioning from the silicone. […] During the loading of PAHs, individual PAHs were dissolved in methanol (loading solvent) to saturation level. To create the PAHs mixture, the concentration in the loading solution was calculated using partitioning coefficients for each PAH from Gilbert et. al. (2015).^39 Then, cleaned and dried O-rings were added to 50 mL volumes of loading solution kept at 15±1° C. A criterion for successful application of the passive dosing system was ensuring the mass of PAHs dissolved into methanol was much greater than that partitioned into the silicon O-ring which in turn was greater than that partitioned into the MSM^37. After 24, 72 and 128 h, O-ring was removed from each loading batch, and they were transferred into MSM to measure O-ring (Crest) and freely dissolved concentration of each PAH (Cfree) at 0.33, 0.66, 1.33, 2.66, 5.33, 12, 24,48, and 72 h. The partition coefficient between different phases (KMethanol:Oring and KOring:MSM) were obtained using the measured Ctest,initial and Cfree, initial. The obtained partitioning coefficient (KOring:MSM) was applied to calculate the required O-ring volume to avoid depletion (<5%) using the following Equation: […]
With a 5 mL MSM and partitioning coefficients from Table 10, the O-ring volume needed for each PAH and PAH mixture were determined. The initial concentrations of freely dissolved PAHs (Cfree initial) and O-ring concentrations (Ctest) in medium samples were calculated via the approach published by Butler et. al (2013).^37 Finally, for the determination of the losses, freely dissolved concentrations of PAHs were directly measured in medium samples to compare with calculated Cfree initial.
Two controls were included to study biodegradation versus dissolved concentrations. The first control contained 5 mL of strain inoculating suspension in passive doing vials with O-rings to account for losses through volatilization. The second control contained 5 mL of MSM without any strain in passive dosing vials in the presence of O-ring loaded with PAHs to account for losses through […].

A word on the solubility: it is how much of the substance goes into solution per volume.

Converted amounts (≈) assume the structure as drawn.

Regarding `c1ccc2cc3ccccc3cc2c1` [Anthracene], the concentration in solution (solubility) was 3.11 µg/mL (≈ 17.4 µM). Where the note is “MSM”, the “Cfree (dissolved concentration measured in MSM)” value is 2.66 mg/L and the “Cfree initial (freely dissolved concentration)” value (“Cfree initial” for short) amounted to 2.98 mg/L. Under “control 1, passive dosing vials”, the losses through volatilization is 4%. The “Ctest initial (O-ring concentration)” value (silicone O-ring) is 94.1 mg/L.
Take `c1ccc2ccccc2c1` [Naphthalene]: the “Cfree (dissolved concentration measured in MSM)” value is 17.73 mg/L, the “Cfree initial” value is 18.31 mg/L, the “Ctest initial (O-ring concentration)” value amounted to 97.8 mg/L and the losses through volatilization turned out to be 19%. The “time after which water concentration decreased due to volatility” value was “about 4 h” and the concentration in solution (solubility) was 20.5 µg/mL (≈ 160 µM).
For `c1ccc2c(c1)ccc1ccccc12` [Phenanthrene], the “Cfree (dissolved concentration measured in MSM)” value turned out to be 0.91 mg/L, the “Cfree initial” value is listed as 1.01 mg/L, the “Ctest initial (O-ring concentration)” value was found to be 48.6 mg/L and the losses through volatilization amounted to 0%. Further, the concentration in solution (solubility) came to 1.04 µg/mL (≈ 5.84 µM).

For the origin of these results see patent publication US20230357064A1, “ENZYME BOOSTER TECHNOLOGY FOR ADVANCED DECONTAMINATION OF PETROLEUM HYDROCARBONS” (priority 2022, published 2023).
